# Reference: US11950596B2, “Methods of protecting seeds from oxidants and microorganisms” (The United States of America, as represented by the …, priority 2020, dated 2024)
# Like-named read-outs stand apart in the source and are kept apart here. Marks after values point to notes of the source that are not given here.
# Legend:
# A. flavus 3357 [1] = assay: Antifungal seed disinfection bioassay (OG plus mild heat), A. flavus infection of cabbage seeds; type: in vivo, Aspergillus flavus; settings: for No. of seedlings infected: 12 seeds; for % A. flavus infection: mean over 20/50° C. and 20/30 min
# Description: Antifungal seed disinfection bioassays using OG: Effect of OG plus mild heat hurdle technology on the level of seed sanitation (Brassica rapa Pekinensis; Chinese cabbage hybrid) was evaluated. Twelve cabbage seeds (per treatment), unsterilized, were transferred to each 1.5 mL microcentrifuge tube filled with 1 mL (final volume) distilled water, without or with A. flavus (1×10^5 CFU/mL): (1) No OG, no A. flavus inoculum, 20 or 30 min, 20° C.; (2) No OG, no A. flavus inoculum, 20 or 30 min, 50° C.; (3) No OG, w/A. flavus, 20 or 30 min, 20° C.; (4) No OG, w/A. flavus, 20 or 30 min, 50° C.; (5) OG 2 mM, w/A. flavus, 20 or 30 min, 20° C., (6) OG 2 mM, w/A. flavus, 20 or 30 min, 50° C., (7) OG 3 mM, w/A. flavus, 20 or 30 min, 20° C.; (8) OG 3 mM, w/A. flavus, 20 or 30 min, 50° C.; (9) OG 4 mM, w/A. flavus, 20 or 30 min, 20° C.; and (10) OG 4 mM, w/A. flavus, 20 or 30 min, 50° C. After each treatment, the treated seeds (total 12 seeds per treatment) were transferred to PDA and the plates were incubated in the dark at room temperature (RT; 20° C.) for seed germination. After seed germination, the growth of seedlings and fungal germination on the surfaces of germinated seeds were monitored up to 7 days (RT).
# Seed disinfection via heat-sensitizing activity of OG: Heat-sensitizing capacity of OG was investigated further with crop seeds (Brassica rapa Pekinensis; Chinese cabbage hybrid) contaminated with A. flavus 3357 on the seed surfaces. OG (0, 2, 3, 4 mM) and mild heat (50° C.; Control: 20° C.) were co-applied for 20 to 30 minutes, and the rates of seed germination were also determined.
# P. expansum W2 = assay: Heat-sensitizing bioassay of OG (MFC) in other fungi; type: cell-based; settings: Penicillium expansum, 90 seconds
# Description: (§1) As described in A. flavus 3357 test (see above), microfuge tubes were treated with mild heat (57.5° C.) or maintained at RT (22.0° C.) (90 seconds). After heat treatments, entire volume (200 μL) from each microfuge tube was spread onto fresh recovery LB agar (for bacteria) or PDA (for fungi), and plates were incubated at the optimum temperature for respective microorganisms (i.e., 35° C. for Aspergillus, 37° C. for E. coli, 28° C. for Penicillium/A. tumefaciens, respectively). The growth/survival of test microorganisms were monitored after 48 to 72 hrs of incubation.
# (§2) Heat-sensitizing activity of OG against other fungi: Heat-sensitizing activity of OG was then investigated in other fungi (five Aspergillus strains and seven Penicillium strains) including fungicide resistant strains (i.e., P. expansum FR2, FR3 resistant to the conventional fungicide fludioxonil) (see Table 1).
# P. expansum FR2 = assay: as above; type: cell-based; settings: Penicillium expansum, fludioxonil resistant mutant
# Description: as §1, §2
# P. expansum FR3 = assay: as above; type: cell-based; settings: Penicillium expansum, fludioxonil resistant mutant
# Description: as §1, §2
# P. expansum W1 = assay: as above; type: cell-based; settings: Penicillium expansum, 90 seconds
# Description: as §1, §2
# [2] = test system: twelve fungi (Aspergillus and Penicillium); assay: Heat-sensitizing bioassay of OG, average MFC of twelve fungi; type: cell-based; settings: 90 seconds; for MFC: read-out: average MFC of OG from twelve fungi
# Description: as §1, §2
# (RT) to 57.5° C. (mild heat).
# A. flavus 3357 [3] = assay: Heat-sensitizing antimicrobial bioassay (MFC) in A. flavus 3357; type: cell-based, Aspergillus flavus; settings: for MFC: Aspergillus flavus, 3357, 0.025 h, read-out: minimum fungicidal concentration (MFC; >99.999% fungal death)
# Description: Antimicrobial bioassay: The heat-sensitizing effect of twenty-eight compounds (phenolic derivatives, alkyl gallates, other food additives) (0.025, 0.050, 0.075, 0.100, 0.200, 0.300, 0.400, 0.500, 0.600 or 0.700 mM) and six drugs/fungicides (1, 2, 4, 8, 16, 32, 64 ppm) (Table 2) were examined using A. flavus 3357. Two hundred μL of fungal spores (1.5×10^5 to 2.1×10^5 CFU) dispersed in PBS was transferred into individual microfuge tube (1.5 mL vol.), where (1) “control” tube contained DMSO only, while (2) “treatment” tube contained test chemical/drug at respective concentration. The tubes were then treated with mild heat (57.5° C.) or maintained at room temperature (RT; 22.0° C.) for 90 seconds. After treatments, entire volume (200 μL) from each microfuge tube was spread onto fresh recovery PDA, and plates were incubated at respective temperatures. Fungal growth/survival was monitored after 48 hrs of incubation.
# as §1
# Determination of optimum temperature and time duration for screening heat sensitizers in A. flavus 3357: For the determination of the optimum temperature and time points for screening heat sensitizers, fungal (A. flavus 3357) survivability was tested by exposing fungal spores (1.5×10^5 to 2.1×10^5 CFU) to different temperatures (50, 55, 57.5, 60, 65° C.) and time points (0.5, 1.0, 1.5, 2.0, 2.5, 3.0, 3.5, 4.0, 4.5, 5.0 min).
# A. flavus 4212 = assay: Heat-sensitizing bioassay of OG (MFC) in other fungi; type: cell-based, Aspergillus flavus; settings: 90 seconds
# Description: as §1, §2
compound,measurement,setting,value
CCCCCCCCOC(=O)c1cc(O)c(O)c(O)c1 [Octyl gallate],No. of seedlings infected,"A. flavus 3357 [1]; OG 2 mM, 20° C., 20 min",12
same,No. of seedlings infected,"A. flavus 3357 [1]; OG 2 mM, 20° C., 30 min",10
same,No. of seedlings infected,"A. flavus 3357 [1]; OG 2 mM, 50° C., 20 min",4
same,No. of seedlings infected,"A. flavus 3357 [1]; OG 2 mM, 50° C., 30 min",1
same,% A. flavus infection,A. flavus 3357 [1]; OG 2 mM,57 ± 43%
same,No. of seedlings infected,"A. flavus 3357 [1]; OG 3 mM, 20° C., 20 min",10
same,No. of seedlings infected,"A. flavus 3357 [1]; OG 3 mM, 20° C., 30 min",10
same,No. of seedlings infected,"A. flavus 3357 [1]; OG 3 mM, 50° C., 20 min",0^d
same,No. of seedlings infected,"A. flavus 3357 [1]; OG 3 mM, 50° C., 30 min",0^d
same,% A. flavus infection,A. flavus 3357 [1]; OG 3 mM,42 ± 48%
same,growth of A. flavus contaminated on crop seeds,"A. flavus 3357 [1]; OG 3 mM, mild heat 50° C., 20 to 30 minutes",completely inhibited
same,No. of seedlings infected,"A. flavus 3357 [1]; OG 4 mM, 20° C., 20 min",12
same,No. of seedlings infected,"A. flavus 3357 [1]; OG 4 mM, 20° C., 30 min",11
same,No. of seedlings infected,"A. flavus 3357 [1]; OG 4 mM, 50° C., 20 min",0^d
same,No. of seedlings infected,"A. flavus 3357 [1]; OG 4 mM, 50° C., 30 min",0^d
same,% A. flavus infection,A. flavus 3357 [1]; OG 4 mM,48 ± 56%
same,growth of A. flavus on crop seeds,"A. flavus 3357 [1]; OG as low as 3 mM, mild heat 50° C., 20 min",completely inhibited
same,MFC,"P. expansum W2; W2, 22.0° C.",> 300 µM
same,MFC,"P. expansum W2; W2, 57.5° C.",170 µM
same,MFC,"P. expansum FR2; FR2, read-out: MFC of OG, 22.0° C., 90 seconds",> 300 µM
same,MFC,"P. expansum FR2; FR2, read-out: MFC of OG, 57.5° C., 90 seconds",190 µM
same,MFC,"P. expansum FR3; FR3, read-out: MFC of OG, 22.0° C., 90 seconds",> 300 µM
same,MFC,"P. expansum FR3; FR3, read-out: MFC of OG, 57.5° C., 90 seconds",160 µM
same,MFC,"P. expansum W1; W1, 22.0° C.",> 300 µM
same,MFC,"P. expansum W1; W1, 57.5° C.",160 µM
same,MFC,"[2]; 22.0° C., listed as OG",>283.3 µM
same,average MFC of OG from twelve fungi,"[2]; 57.5° C., listed as OG",175.8 (p < 0.005) μM
same,MFC,"[2]; Aspergillus, 22.0° C.",> 283 µM
same,MFC,"[2]; Aspergillus, 57.5° C.",176 µM
same,minimum fungicidal concentration (MFC; >99.999% fungal death),A. flavus 3357 [3],180* μM
same,MFC,"A. flavus 3357 [3]; 22.0° C. (RT), 90 seconds, PBS",250 µM
same,MFC,A. flavus 3357 [3],180 µM
same,MFC,"A. flavus 4212; Aspergillus flavus, 4212, 22.0° C.",> 300 µM
same,MFC,"A. flavus 4212; Aspergillus flavus, 4212, 57.5° C.",180 µM
